Tests used:
MRL/MpJ-Faslpr/J mouse = MRL/MpJ-Faslpr/J mouse model of systemic lupus erythematosus; format: in vivo; conditions: 30 mg/kg; week 4
[1] = system: CTGF, PAI-1, COL1A1, TGFB1; assay: Tsk-1 mouse skin TGF-β pathway gene overexpression (qRT-PCR); format: in vivo; conditions: 30 mg/kg
Text: Next, to examine the effect of the compound on the overexpression of TGF-β pathway genes in Tsk-1 mouse skin, qRT-PCR was used to measure mRNA levels for six genes: CTGF, PAI-1, COL1A1, α-smooth muscle actin (ALPHA SMA), cartilage oligomeric protein 1 (COMP), and TGFB1. Overexpression was defined as the excess mRNA levels observed in Tsk-1 mouse skin compared to normal pa/pa mouse skin. […] PAI-1 and TGFB1 gene overexpression was not inhibited by the compound.

CD44 = CD44 expression in B cell differentiation culture (flow cytometry); format: cell-based, human; conditions: Day 7; for percentage of CD20high/CD44high cells: DMSO 22.2%
Method: Immunophenotyping For Flow Cytometric Analysis: Cells were stained using multicolor direct immunofluorescence stain for flow cytometric analysis. Surface staining was performed before cell fixation and permeabilization. Cells (50 μl; 1×10^6 cells/ml in washing buffer, 2% FBS with 0.1% NaN3 in PBS) were used for each staining. The cells were stained with isotype control mAb ([…]) and multicolor FITC-conjugated anti-CD20 mAb and PE-conjugated anti-CD38 mAb, or PerCP-Cy5.5 conjugated anti-CD44 mAb, PE-conjugated anti-CD83 mAb were used for day 4 activated B cells (CD20+CD38-cells), and day 4 PBs and day 7 PBs (CD20-CD38+), and other staining, analyzed by flow cytometry as per manufacturer's instructions. The intracellular staining of transcription factor proteins (BCL-6, IRF-4, BLIMP-1, PAX-5 and XBP-1) and IgJ was performed according to the manufacturer's recommendations. Flow cytometric analysis was performed with a FACSCanto using FACSDiva 6 (BD Biosciences). For data analysis, Flowjo (Tree Star) software was used.
Using the same B cells in vitro differentiation system, the activity of the test compound on CD44 and CD83 expression in B cell differentiation was further investigated. Multicolor FITC-conjugated anti-CD20 mAb, PerCP Cy5.5-conjugated anti-CD44 mAb and PE-conjugated anti-CD83 mAb are used for day 4 and day 7 cells. The effect of the test compound was evaluated from 3 separate experiments representative of 3 donors.

CD19+ B cells = assay: Cell viability during plasmablast differentiation (live cell count); format: cell-based, human; conditions: for percentage of total viable cells: after 4 days
Text: To determine live cell count, B cells (see section 8.2.3) were stained with 0.4% trypan blue and live cells counted using the Countess automated cell counter (Invitrogen) in duplicate samples.

Tsk-1 mouse = assay: Tight skin-1 (Tsk-1) mouse model: hypodermal thickness and hydroxyproline; format: in vivo; conditions: 30 mg/kg
Text: First, the inhibitory effects of the compound on fibrosis in the Tsk-1 tight skin mouse model were also investigated.

[2] = system: BCL-6, IRF-4, BLIMP-1, PAX5 and XBP-1; assay: Transcription factor protein expression by laser scanning cytometry (iCyte), normal B cells; format: cell-based, human; conditions: Day 7, 20 nM
Method: Preparation Of Cytospin From Single Cell Suspension And Immunofluorescence Staining for iCyte: A cell suspension of not more than 0.5×10^6 cells/ml of 2% FBS-containing PBS was prepared. Up to 200 μl of this suspension was loaded in each cuvette and spinned at 800 rpm for 3 min. The cuvette and the paper were carefully detached without damaging the fresh cytospin and proceeded with either immediate fixation or drying. Unfixed cytospins were stored for max 2 days at room temperature. Cells on slides were fixed with increasing concentrations of EtOH and allowed to dry prior to staining. After blocking non-specific binding with normal serum (species same as secondary antibody), sections were incubated with the mixture of following monoclonal antibodies in a humidified chamber at cool room for overnight: (i) anti-human CD38 as plasmablast cell marker, and (ii) anti-BCL-6, IRF-4, BLIMP-1, PAX5 and XBP-1 for transcription factor proteins. After washings, slides were incubated for 1 hr at room temperature in dark with the mixture of secondary antibodies which were raised in different species (with two different fluorochromes, i.e., Alexa Fluor-488 and Alexa Fluor-633). The slides were then rinsed in PBS, counterstained with DAPI for 20 minutes at room temperature, coverslipped with anti-fade fluorescent mounting medium, and sealed with nail polish. The slides were stored in dark at 4° C. To exclude false positives produced by nonspecific binding of the secondary antibody, all of the tissues were treated in the same manner with buffer substituting for the primary antibody. The color of the antibody staining was observed and quantity was analyzed in the tissue sections using iCyte.

[3] = Tsk-1 vs pa/pa mouse skin mRNA, p≤0.001
[4] = CD38+ plasmablast/plasma cells, listed as Compound I-S

## O=C1CC[C@H](N2Cc3c(OCc4ccc(CN5CCOCC5)cc4)cccc3C2=O)C(=O)N1 [Test compound, (S)-3-[4-(4-morphlin-4-ylmethylbenzyloxy)-1-oxo-1,3-dihydro-isoindo-2-yl]piperidine-2,6-dione]
MRL/MpJ-Faslpr/J mouse
  Splenic B cells, increase: 37%
  anti-double stranded DNA autoantibody level, decrease: 25%
  peripheral blood B cells: no change
[1]
  PAI-1 gene overexpression: not inhibited
  TGFB1 gene overexpression: not inhibited
[1]; [3]
  reduction of overexpression of COL1A1: 129%
  reduction of overexpression of CTGF: 79%
CD44
  CD44 mean fluorescence intensity (MFI): dose-dependently and significantly decreased
CD44; 2 nM
  percentage of CD20high/CD44high cells: 18.4%
CD44; 20 nM
  percentage of CD20high/CD44high cells: 10.1%
CD44; 200 nM
  percentage of CD20high/CD44high cells: 6.6%
CD19+ B cells; 20 nM
  percentage of total viable cells: 69.6 % of control
CD19+ B cells; 200 nM
  percentage of total viable cells: 35.8 % of control
CD19+ B cells; first 4 days of culture
  B cell viability: reduced
Tsk-1 mouse
  reduction of collagen content of the skin (hydroxyproline levels): 38%
Tsk-1 mouse; p≤0.001
  reduction of hypodermal thickening: 45%
[2]; CD38+ plasmablast/plasma cells
  BCL-6 expression: significantly increased
  BLIMP-1 expression: decreased
  IRF-4 expression: decreased
  PAX-5 expression: decreased
[2]; [4]
  BCL-6 expression: increased
  BLIMP-1 expression: reduced
  IRF-4 expression: reduced
[2]; both cell populations
  XBP-1 expression: no change
[2]; whole lymphocyte population
  BCL-6 expression: significantly increased
  BLIMP-1 expression: decreased
  IRF-4 expression: decreased
